From US20240101572A1, “DIHYDROOXADIAZINONE COMPOUND AND PHARMACEUTICAL USE THEREOF” (Japan Tobacco Inc., priority 2022, published 2024) come the findings set out here.

The term IC50 denotes the concentration at which inhibition is half-maximal.

The target of one experiment is full-length human PLD1 (Homo sapiens (Human), UniProt Q13393). Kind of experiment: Evaluation of human PLD1 enzyme inhibitory activity (Amplex Red / choline oxidase fluorescence). In kind it is biochemical. The conditions noted are these: full-length human PLD1 enzyme; read-out: PLD1 IC50. Summed up:
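Fluorescence read-out couples choline to Amplex Red via choline oxidase and peroxidase after a 60 min room-temperature reaction. Enzyme: FLAG-tagged full-length human PLD1 from Expi293F cells, anti-FLAG purified; substrate diheptanoyl phosphatidylcholine; HEPES pH 7.5 assay buffer with 0.01% NP-40, 0.1% BSA, 5% DMSO final.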

Another experiment concerns the target full-length human PLD2 (Homo sapiens (Human), UniProt O14939). Briefly: Evaluation of human PLD2 enzyme inhibitory activity (Amplex Red / choline oxidase fluorescence). In kind it is biochemical. The settings on record: full-length human PLD2 enzyme; read-out: PLD2 IC50. Summed up:
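Released choline was read by Amplex Red fluorescence coupled to choline oxidase and HRP after a 60 min room-temperature reaction. Substrate was diheptanoyl phosphatidylcholine, added as a 6 mmol/L solution, and enzyme was FLAG-tagged full-length human PLD2 from Expi293F, added as a 6 nmol/L solution. Buffer was 50 mM HEPES pH 7.5 with 5% final DMSO.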

Structures are written as SMILES.

Chain of full-length human PLD1 (Q13393 other isoform, or with tags, fused parts or gaps): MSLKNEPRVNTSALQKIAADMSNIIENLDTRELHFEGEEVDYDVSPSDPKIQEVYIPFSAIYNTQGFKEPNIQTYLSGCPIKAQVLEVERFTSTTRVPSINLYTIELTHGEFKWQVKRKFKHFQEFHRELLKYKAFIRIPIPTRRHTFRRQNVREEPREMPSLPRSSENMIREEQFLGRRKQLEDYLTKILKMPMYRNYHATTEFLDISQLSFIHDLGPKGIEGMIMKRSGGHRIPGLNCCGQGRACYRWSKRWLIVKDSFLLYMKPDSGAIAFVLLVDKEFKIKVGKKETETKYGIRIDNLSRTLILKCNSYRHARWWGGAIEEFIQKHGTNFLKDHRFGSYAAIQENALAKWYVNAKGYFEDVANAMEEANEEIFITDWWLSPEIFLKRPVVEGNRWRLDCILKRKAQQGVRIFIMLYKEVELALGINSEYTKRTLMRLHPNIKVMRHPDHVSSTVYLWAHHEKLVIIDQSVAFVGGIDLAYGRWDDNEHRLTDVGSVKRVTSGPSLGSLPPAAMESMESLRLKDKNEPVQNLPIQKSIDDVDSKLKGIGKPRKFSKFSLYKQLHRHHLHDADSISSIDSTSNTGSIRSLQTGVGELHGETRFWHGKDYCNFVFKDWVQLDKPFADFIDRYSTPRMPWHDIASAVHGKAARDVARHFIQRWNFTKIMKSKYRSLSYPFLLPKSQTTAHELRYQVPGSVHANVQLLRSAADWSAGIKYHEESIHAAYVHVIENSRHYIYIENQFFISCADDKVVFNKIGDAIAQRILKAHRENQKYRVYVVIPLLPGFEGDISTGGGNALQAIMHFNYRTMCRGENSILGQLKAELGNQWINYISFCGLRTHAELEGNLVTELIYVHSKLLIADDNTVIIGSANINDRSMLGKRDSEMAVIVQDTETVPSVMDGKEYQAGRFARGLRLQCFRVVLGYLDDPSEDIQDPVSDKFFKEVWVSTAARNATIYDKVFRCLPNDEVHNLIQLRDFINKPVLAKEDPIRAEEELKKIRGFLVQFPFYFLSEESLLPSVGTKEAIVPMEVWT
Chain of full-length human PLD2 (O14939 whole entry): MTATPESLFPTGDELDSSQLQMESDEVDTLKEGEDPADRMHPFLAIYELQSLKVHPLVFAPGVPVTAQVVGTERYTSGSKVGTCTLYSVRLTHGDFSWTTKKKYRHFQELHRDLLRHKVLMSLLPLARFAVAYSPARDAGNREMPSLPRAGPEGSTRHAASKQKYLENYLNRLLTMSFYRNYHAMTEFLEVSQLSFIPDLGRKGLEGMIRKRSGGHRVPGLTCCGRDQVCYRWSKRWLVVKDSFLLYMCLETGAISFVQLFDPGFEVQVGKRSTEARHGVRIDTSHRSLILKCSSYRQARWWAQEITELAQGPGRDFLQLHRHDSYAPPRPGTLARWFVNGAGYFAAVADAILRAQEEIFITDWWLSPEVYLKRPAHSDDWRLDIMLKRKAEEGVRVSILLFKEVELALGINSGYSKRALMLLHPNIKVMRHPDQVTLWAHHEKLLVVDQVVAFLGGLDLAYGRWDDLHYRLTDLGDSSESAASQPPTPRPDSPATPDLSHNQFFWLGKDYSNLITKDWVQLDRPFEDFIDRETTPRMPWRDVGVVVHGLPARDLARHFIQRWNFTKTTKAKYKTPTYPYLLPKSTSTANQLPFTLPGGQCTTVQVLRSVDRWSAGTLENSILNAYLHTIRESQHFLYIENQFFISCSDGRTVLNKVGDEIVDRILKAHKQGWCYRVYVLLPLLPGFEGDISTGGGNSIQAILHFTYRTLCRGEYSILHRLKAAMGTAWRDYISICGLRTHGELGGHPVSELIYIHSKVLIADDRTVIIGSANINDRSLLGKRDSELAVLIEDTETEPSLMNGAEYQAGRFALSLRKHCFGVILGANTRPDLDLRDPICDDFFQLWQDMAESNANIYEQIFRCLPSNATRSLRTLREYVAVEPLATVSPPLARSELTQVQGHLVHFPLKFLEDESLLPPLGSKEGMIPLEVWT

On to `Cc1ccncc1C1=NNC(=O)O[C@]12CC[C@@H](C[C@H](C)NC(=O)c1cc(Cl)no1)CC2` [Example 113], for which the IC50 at full-length human PLD1 was determined as 17 nM; on full-length human PLD2 it was 13 nM.

As for `Cc1ccncc1C1=NNC(=O)O[C@]12CC[C@@H](C[C@H](C)NC(=O)c1cc3ccccc3o1)CC2` [Example 114], the 50% inhibitory concentration (IC50) at full-length human PLD1 is 13 nM; at full-length human PLD2 it was less than 10 nM.

With `CSc1ccc(C2=NNC(=O)OC23CCN(C[C@H](C)NC(=O)c2cc4cc(F)ccc4o2)CC3)c(Cl)c1` [Example 115], the IC50 was 15 nM at full-length human PLD1 and less than 10 nM on full-length human PLD2.

With `C[C@@H](CN1CCC2(CC1)OC(=O)NN=C2c1ccc(S(C)(=O)=O)cc1Cl)NC(=O)c1cc2cc(F)ccc2o1` [Example 116], the IC50 was 43 nM at full-length human PLD1 and 37 nM at full-length human PLD2.

Take `C[C@@H](C[C@H]1CC[C@]2(CC1)OC(=O)NN=C2c1ccc(S(C)(=O)=O)cc1Cl)NC(=O)c1cc2cc(F)ccc2o1` [Example 117]: the IC50 at full-length human PLD1 is 21 nM; at full-length human PLD2, 18 nM.

Turning to `CNC(=O)C(=O)N[C@@H](C)C[C@H]1CC[C@]2(CC1)OC(=O)NN=C2c1cccc2c1OC(F)(F)O2` [Example 118], the IC50 on full-length human PLD1 came to 50 nM; on full-length human PLD2, 73 nM.

As for `CNC(=O)C(=O)N[C@@H](C)C[C@H]1CC[C@]2(CC1)OC(=O)NN=C2c1ccccc1C` [Example 119], the IC50 at full-length human PLD1 is 11 nM; on full-length human PLD2, less than 10 nM.

As for `C[C@@H](C[C@H]1CC[C@]2(CC1)OC(=O)NN=C2c1ccc(F)cc1Br)NC(=O)C1(O)COC1` [Example 123], the results for the IC50 on full-length human PLD1 and at full-length human PLD2 were 202 nM and 502 nM, respectively.

Take `CNC1(C(=O)N[C@@H](C)C[C@H]2CC[C@]3(CC2)OC(=O)NN=C3c2ccc(F)cc2Br)COC1` [Example 124]: the concentration for half-maximal inhibition (IC50) is 638 nM at full-length human PLD1 and 2740 nM at full-length human PLD2.

Consider `CNC(=O)C(=O)N[C@@H](C)C[C@H]1CC[C@]2(CC1)OC(=O)NN=C2c1cc(C)ccc1C` [Example 126], for which the IC50 on full-length human PLD1 is 13 nM; on full-length human PLD2, less than 10 nM.

For `CSc1ccc(C2=NNC(=O)OC23CCN(C[C@H](C)NC(=O)c2cc(C)n[nH]2)CC3)c(Cl)c1` [Example 127], the figures for the IC50 on full-length human PLD1 and on full-length human PLD2 were 25 nM and less than 10 nM, respectively.

Consider `Cc1cc(C(=O)N[C@@H](C)CN2CCC3(CC2)OC(=O)NN=C3c2ccc(S(C)(=O)=O)cc2Cl)[nH]n1` [Example 128], for which the values for the half-inhibitory concentration (IC50) at full-length human PLD1 and at full-length human PLD2 were 186 nM and 60 nM, respectively.

In the case of `CNC(=O)C(=O)N[C@@H](C)C[C@H]1CC[C@]2(CC1)OC(=O)NN=C2c1cccc(C)c1C` [Example 129], the IC50 is 18 nM at full-length human PLD1 and less than 10 nM on full-length human PLD2.

Consider `CNC(=O)C(=O)N[C@@H](C)C[C@H]1CC[C@]2(CC1)OC(=O)NN=C2c1ccc(OCC(C)(C)O)cc1Br` [Example 130], for which the IC50 was 18 nM on full-length human PLD1 and less than 10 nM on full-length human PLD2.

For the compound `C[C@@H](C[C@H]1CC[C@]2(CC1)OC(=O)NN=C2c1ccc(OCC(C)(C)O)cc1Br)NC(=O)c1cc(Cl)no1` [Example 131], the IC50 is 10 nM at full-length human PLD1 and less than 10 nM at full-length human PLD2.

As for `C[C@@H](C[C@H]1CC[C@]2(CC1)OC(=O)NN=C2c1ccc(OCC(C)(C)O)cc1Br)NC(=O)c1cc2ccccc2o1` [Example 132], the 50% inhibitory concentration (IC50) is 14 nM on full-length human PLD1 and less than 10 nM at full-length human PLD2.

For the compound `CNC(=O)C(=O)N[C@@H](C)C[C@H]1CC[C@]2(CC1)OC(=O)NN=C2c1ccc(F)cc1C(C)C` [Example 133], the IC50 came out at 29 nM at full-length human PLD1 and 31 nM on full-length human PLD2.

Take `CC(C)c1cc(F)ccc1C1=NNC(=O)O[C@]12CC[C@@H](C[C@H](C)NC(=O)c1cc(Cl)no1)CC2` [Example 134]: the IC50 on full-length human PLD1 was 21 nM; on full-length human PLD2, 30 nM.

Regarding `CNC(=O)C(=O)N[C@@H](C)C[C@H]1CC[C@]2(CC1)OC(=O)NN=C2c1ccc(F)cc1CCC(F)(F)F` [Example 135], the values for the IC50 on full-length human PLD1 and at full-length human PLD2 were 86 nM and 33 nM, respectively.

In the case of `Cc1cc(F)ccc1C1=NNC(=O)O[C@]12CC[C@@H](C[C@H](C)NC(=O)N1CCCC1)CC2` [Example 136], the results for the IC50 on full-length human PLD1 and at full-length human PLD2 were 155 nM and 170 nM, respectively.

For `Cc1cc(F)ccc1C1=NNC(=O)O[C@]12CC[C@@H](C[C@H](C)NC(=O)N1CC[C@H](c3ccccc3)C1)CC2` [Example 137], the IC50 was found to be 505 nM on full-length human PLD1 and 1590 nM at full-length human PLD2.

For the compound `Cc1cc(F)ccc1C1=NNC(=O)O[C@]12CC[C@@H](C[C@H](C)NC(=O)N1CC[C@@H](c3ccccc3)C1)CC2` [Example 138], the IC50 at full-length human PLD1 was 774 nM; at full-length human PLD2, 1400 nM.

With `CNC(=O)C(=O)N[C@@H](C)C[C@H]1CC[C@]2(CC1)OC(=O)NN=C2c1ccc(F)cc1I` [Example 139], the IC50 at full-length human PLD1 and on full-length human PLD2 was less than 10 nM each time.

Take `CNC(=O)C(=O)N[C@@H](C)C[C@H]1CC[C@]2(CC1)OC(=O)NN=C2c1ccc(OC(F)F)cc1Br` [Example 140]: the IC50 at full-length human PLD1 and on full-length human PLD2 was less than 10 nM each time.

Take `CC(=O)N[C@@H](C)C[C@H]1CC[C@]2(CC1)OC(=O)NN=C2c1ccc(OC(F)F)cc1Br` [Example 141]: the figures for the IC50 on full-length human PLD1 and at full-length human PLD2 were 141 nM and 164 nM, respectively.

With `CC(=O)Nc1cccc2[nH]c(C(=O)N[C@@H](C)C[C@H]3CC[C@]4(CC3)OC(=O)NN=C4c3ccc(F)cc3)cc12` [Example 142], the IC50 on full-length human PLD1 is 22 nM; at full-length human PLD2, less than 10 nM.

Take `C[C@@H](C[C@H]1CC[C@]2(CC1)OC(=O)NN=C2c1ccc(OC(F)F)cc1Br)NC(=O)c1ccn[nH]1` [Example 143]: the IC50 at full-length human PLD1 came to 27 nM; on full-length human PLD2, 25 nM.

Consider `C[C@@H](C[C@H]1CC[C@]2(CC1)OC(=O)NN=C2c1ccc(OC(F)F)cc1Br)NC(=O)c1cc(Cl)n[nH]1` [Example 144], for which the values for the IC50 at full-length human PLD1 and on full-length human PLD2 were 11 nM and less than 10 nM, respectively.

As to `CNC(=O)C(=O)N[C@@H](C)C[C@H]1CC[C@]2(CC1)OC(=O)NN=C2c1ccc(C)cc1C` [Example 145], the results for the IC50 on full-length human PLD1 and on full-length human PLD2 were 17 nM and less than 10 nM, respectively.

In the case of `Cc1ccncc1C1=NNC(=O)O[C@]12CC[C@@H](C[C@H](C)NC(=O)c1nc3ccccc3[nH]1)CC2` [Example 146], the half-maximal inhibitory concentration (IC50) was 20 nM on full-length human PLD1 and less than 10 nM at full-length human PLD2.

On to `CNC(=O)C(=O)N[C@@H](C)C[C@H]1CC[C@]2(CC1)OC(=O)NN=C2c1ncccc1C` [Example 147], for which the IC50 at full-length human PLD1 and on full-length human PLD2 was 32 nM in each case.

For the compound `Cc1cccnc1C1=NNC(=O)O[C@]12CC[C@@H](C[C@H](C)NC(=O)c1cc(Cl)no1)CC2` [Example 148], the IC50 at full-length human PLD1 is 20 nM; on full-length human PLD2, 18 nM.

For `Cc1cccnc1C1=NNC(=O)O[C@]12CC[C@@H](C[C@H](C)NC(=O)c1cc3ccccc3o1)CC2` [Example 149], the IC50 was 12 nM on full-length human PLD1 and less than 10 nM on full-length human PLD2.

`CNC(=O)C(=O)N[C@@H](C)C[C@H]1CC[C@]2(CC1)OC(=O)NN=C2c1cnccc1Br` [Example 151]: the figures for the IC50 on full-length human PLD1 and at full-length human PLD2 were 18 nM and less than 10 nM, respectively.

On to `CNC(=O)C(=O)N[C@@H](C)C[C@H]1CC[C@]2(CC1)OC(=O)NN=C2c1ccc(C#N)cc1C` [Example 152], for which the IC50 was 23 nM at full-length human PLD1 and 13 nM at full-length human PLD2.

Regarding `Cc1cc(C(=O)N[C@@H](C)C[C@H]2CC[C@]3(CC2)OC(=O)NN=C3c2ccc(C#N)cc2C)[nH]n1` [Example 153], the IC50 at full-length human PLD1 worked out at 27 nM; on full-length human PLD2 it was 28 nM.

For `CNC(=O)C(=O)N[C@@H](C)C[C@H]1CC[C@]2(CC1)OC(=O)NN=C2c1cnc(OC)cc1C` [Example 154], the values for the concentration for half-maximal inhibition (IC50) on full-length human PLD1 and on full-length human PLD2 were 27 nM and 14 nM, respectively.

As for `Cc1cc(F)ccc1C1=NNC(=O)O[C@]12CC[C@@H](C[C@H](C)NC(=O)N1CCc3ccccc3C1)CC2` [Example 155], the results for the IC50 on full-length human PLD1 and at full-length human PLD2 were 14 nM and less than 10 nM, respectively.

Consider `COC(=O)N[C@@H](C)C[C@H]1CC[C@]2(CC1)OC(=O)NN=C2c1ccc(F)cc1C` [Example 156], for which the IC50 at full-length human PLD1 stood at 236 nM; at full-length human PLD2, 412 nM.

With `CNC(=O)C(=O)N[C@@H](C)C[C@H]1CC[C@]2(CC1)OC(=O)NN=C2c1cc(F)ccc1Br` [Example 157], the IC50 on full-length human PLD1 and on full-length human PLD2 was less than 10 nM in each case.

As to `CNC(=O)C(=O)N[C@@H](C)C[C@H]1CC[C@]2(CC1)OC(=O)NN=C2c1cnc(Cl)cc1C` [Example 158], the results for the IC50 on full-length human PLD1 and at full-length human PLD2 were 27 nM and 15 nM, respectively.

For `CNC(=O)C(=O)N[C@@H](C)C[C@H]1CC[C@]2(CC1)OC(=O)NN=C2c1cnc(N2CCC2)cc1C` [Example 159], the 50% inhibitory concentration (IC50) at full-length human PLD1 was 28 nM; on full-length human PLD2, less than 10 nM.

As for `COc1cc(C)c(C2=NNC(=O)O[C@]23CC[C@@H](C[C@H](C)NC(=O)c2cc(C)n[nH]2)CC3)cn1` [Example 160], the IC50 at full-length human PLD1 was 26 nM; on full-length human PLD2 it was 17 nM.

Regarding `CNC(=O)C(=O)N[C@@H](C)C[C@H]1CC[C@]2(CC1)OC(=O)NN=C2c1ccc(Br)cc1C` [Example 161], the IC50 was 20 nM at full-length human PLD1 and 13 nM at full-length human PLD2.

Regarding `CNC(=O)C(=O)N[C@@H](C)C[C@H]1CC[C@]2(CC1)OC(=O)NN=C2c1cnc(O)cc1C` [Example 162], the IC50 on full-length human PLD1 came to 322 nM; on full-length human PLD2, 536 nM.

For `C=C(OCC)c1ccc(C2=NNC(=O)O[C@]23CC[C@@H](C[C@H](C)NC(=O)C(=O)NC)CC3)c(C)c1` [Example 163], the IC50 at full-length human PLD1 and on full-length human PLD2 was less than 10 nM throughout.

For the compound `CNC(=O)C(=O)N[C@@H](C)C[C@H]1CC[C@]2(CC1)OC(=O)NN=C2c1cnc(N2CCOCC2)cc1C` [Example 164], the IC50 on full-length human PLD1 was 38 nM; at full-length human PLD2, less than 10 nM.
